{
  "source": "patent US4927658A",
  "about": "“Tris-hydroxymethyl alkane esters as low calorie fat mimetics” (Nabisco Brands, Inc., priority 1989, dated 1990)",
  "key": {"[1]": {"system": "porcine pancreatic lipase", "assay": "in vitro digestibility using pancreatic lipase", "format": "in vitro ADME", "settings": "37° C., pH 7.1", "protocol": "This example outlines the procedure for estimating the in vitro digestibility of the synthetic fat mimetics of this invention using pancreatic lipase.\n1. Buffer: A pH 7.1 phosphate buffer is prepared by dissolving 6.8 g. KH2 PO4 in 1 L. of millipore filtered water (to yield 0.05M phosphate). Fifty mg. Ca(NO3)2 and 5.0 g. cholic acid (Na salt, an ox bile isolate from Sigma) are added to give 300 microM Ca^++ and 0.5% cholic acid in 0.05M phosphate. The pH is adjusted to approximately 7.1 with solid NaOH. Several drops of Baker \"Resi-analyzed\" toluene are added to prevent bacterial growth during storage at 3°-5° C.\n2. Lipase: About 15 mg./mL commercial porcine pancreatic lipase from U.S. Biochemical Corporation is dissolved in buffer.\n3. Substrates and Standards: A 1.0 mL volumetric flask is charged with an amount of lipid substrate (test substance or standard) calculated to give a concentration of 200 nanomoles per microliter in Baker \"Resi-analyzed\" toluene. (The proper concentration may be approximated by […] the molecular weight of the lipid in question, dividing by 10, and diluting to the mark; this yields about 200 nanomoles per microliter.) This preparation affords the substrate to be used in the hydrolysis reactions. […]"}, "[2]": {"assay": "in vivo animal feeding study for caloric availability", "parameters": "species or system male Sprague-Dawley rats", "settings": "rats, diet of 50% fort and 21% test compound, 14 days", "text": "This example illustrates how the novel fat mimetics of this invention are screened for caloric availability by a carefully controlled in vivo animal feeding study.\nAn experimental relationship between total calories ingested and animal body weight gain is established by monitoring the body weight gain associated with consumption of a nutritionally balanced diet containing varying concentrations of a reference substance such as corn oil which has a known caloric availability. Correlations between total calories ingested and body weight gain are excellent (r=0.99).\nCaloric availability of an unknown substance is evaluated by substituting a specific weight of the unknown substance for the reference substance and observing the body weight gain. The gain in body weight is equated to a total number of calories using the correlation previously established for the reference data. The estimated number of calories ingested are divided by the weight of unknown substance to give the apparent calories per gram for the unknown substance. Generally speaking, in these bioavailability studies, the degree of perianal pelt soiling correlates with reduced bioavailability.\nThe test animals are six-week-old male Sprague-Dawley rats obtained from the Portage, Mich. facility of the Charles River Laboratories, Inc. After acclamation for 15 days, the test duration is 14 days. […]"}, "pancreatic lipase": {"system": "pancreatic lipase", "settings": "Minich, col. 4, lines 62-64; cited from earlier work"}, "[3]": {"settings": "rat, in vivo; cited from earlier work"}},
  "data": [
    {"compound": "CCCCCCCC/C=C\\CCCCCCCC(=O)OCC(C)(COC(=O)CCCCCCC/C=C\\CCCCCCCC)COC(=O)CCCCCCC/C=C\\CCCCCCCC", "note": "[Example 1, 1,1,1-Tris hydroxymethylethane trioleate]", "values": [
      {"measurement": "hydrolysis by pancreatic lipase", "setting": "[1]; after three hours contact with pancreatic lipase", "result": "limited hydrolysis"},
      {"measurement": "caloric availability upon being metabolized", "setting": "[2]", "result": "about 3.3 kcal/gram"}
    ]},
    {"compound": "CCCCCCCC(=O)OCC(COC(=O)CCCCCCC)(COC(=O)CCCCCCC)COC(=O)CCCCCCC", "note": "[pentaerythritol tetracaprylate]", "values": [
      {"measurement": "hydrolysis by pancreatic lipase", "setting": "pancreatic lipase", "result": "not attacked, hydrolyzed"}
    ]},
    {"compound": "CCCCCCCC/C=C\\CCCCCCCC(=O)OCC(COC(=O)CCCCCCC/C=C\\CCCCCCCC)OC(=O)CCCCCCC/C=C\\CCCCCCCC", "note": "[triolein]", "values": [
      {"measurement": "hydrolysis by pancreatic lipase", "setting": "[1]; triglyceride control, in 10 minutes", "result": "substantially hydrolyzed"}
    ]},
    {"compound": "corn oil", "values": [
      {"measurement": "caloric availability of reference", "setting": "[3]", "result": 9.0, "unit": "calories/gram"}
    ]}
  ]
}
